Drawing on PubChem BioAssay (NCI), this text covers GI50 and TGI for 4 compounds.

Among the test systems are UO-31 renal; OVCAR-3 ovarian; MOLT-4 leukemia; HCT-116 colon; CCRF-CEM leukemia; DU-145 prostate; SNB-75 CNS; RPMI-8226 leukemia; NCI-H226 lung; OVCAR-4 ovarian; OVCAR-8 ovarian; COLO 205 colon.
What all share (assay): NCI anticancer screen, dose series, 48 h

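Test compounds were applied to cells in 96-well plates for 48 hours at 5 doses. At the GI50, growth is halved. TGI marks complete inhibition of growth.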

Regarding `NCCCn1c2c(c3ccc([N+](=O)[O-])cc3c1=O)C(=O)c1cc(F)ccc1-2`, the GI50 was 0.0324 µM in the assay on UO-31 renal; 0.031 µM in the assay with OVCAR-3 ovarian; below 0.01 µM with MOLT-4 leukemia; below 0.0112 µM with HCT-116 colon; below 0.0144 µM with CCRF-CEM leukemia; below 0.0104 µM in the assay with DU-145 prostate. The GI50 in the assay on SNB-75 CNS was 0.023 µM. In addition, the TGI in the assay on UO-31 renal worked out at 0.19 µM; in the assay with OVCAR-3 ovarian, 0.152 µM; in the assay on HCT-116 colon, 0.134 µM; in the assay on CCRF-CEM leukemia, 0.779 µM; in the assay on DU-145 prostate, 0.451 µM; with SNB-75 CNS, 0.268 µM.
As to `CCP(=O)(CC)C(Cl)(Cl)C(O)C(Cl)(Cl)Cl` (configuration not stated), the TGI in the assay on UO-31 renal, in the assay on RPMI-8226 leukemia, in the assay with OVCAR-3 ovarian, with NCI-H226 lung, in the assay with MOLT-4 leukemia and in the assay on HCT-116 colon was above 100 µM in each case. In addition, the TGI in the assay with OVCAR-4 ovarian, with CCRF-CEM leukemia, in the assay on OVCAR-8 ovarian, in the assay with DU-145 prostate, with SNB-75 CNS and in the assay on COLO 205 colon was above 100 µM each time.
Take `O=C1/C(=C/c2ccc(Cl)cc2)N=C(c2ccccc2)N1/N=C/c1ccccc1O`: the TGI was determined as 43.4 µM with UO-31 renal; 24.8 µM in the assay on RPMI-8226 leukemia; 36.3 µM in the assay on OVCAR-3 ovarian; 42.1 µM with NCI-H226 lung; 38.9 µM in the assay on MOLT-4 leukemia; 15.2 µM in the assay on HCT-116 colon. Moreover, the TGI in the assay with OVCAR-4 ovarian was 19.9 µM; in the assay on CCRF-CEM leukemia it was 7.73 µM; in the assay with OVCAR-8 ovarian, 34.6 µM; with DU-145 prostate, above 100 µM; with SNB-75 CNS, 31 µM; with COLO 205 colon, above 100 µM.
For the compound `CN1C(=O)CN2C(Cl)(Cl)C2(c2ccccc2)c2cc(Cl)ccc21` (configuration not stated), the TGI with UO-31 renal is above 100 µM; with RPMI-8226 leukemia, above 100 µM; in the assay on OVCAR-3 ovarian, above 100 µM; with NCI-H226 lung, above 100 µM; with MOLT-4 leukemia, 91.9 µM; in the assay with HCT-116 colon, above 100 µM. Further, the TGI with OVCAR-4 ovarian, with CCRF-CEM leukemia, in the assay on OVCAR-8 ovarian and with COLO 205 colon was above 100 µM throughout.
